Reference: patent publication US20230150944A1, “PESTICIDALLY ACTIVE HETEROCYCLIC DERIVATIVES WITH SULFOXIMINE CONTAINING SUBSTITUENTS” (SYNGENTA CROP PROTECTION AG, priority 2018, published 2023)

Legend:
Type in all cases: in vivo
[1] = test system: Bemisia tabaci (Cotton White Fly); assay: Example B1: Activity on Bemisia tabaci, cotton leaf disc spray; conditions: foliar, 144 h, application rate of 200 ppm, adult white flies on cotton leaf discs, 6 days after incubation
Method: Example B1: Activity on Bemisia tabaci (Cotton White Fly)
Cotton leaf discs were placed on agar in 24-well microtiter plates and sprayed with aqueous test solutions prepared from 10′000 ppm DMSO stock solutions. After drying the leaf discs were infested with adult white flies. The samples were checked for mortality 6 days after incubation.

[2] = test system: Diabrotica balteata (Corn Root Worm); assay: Example B2: Activity on Diabrotica balteata, maize sprout spray; conditions: 96 h, application rate of 200 ppm, L2 larvae on maize sprouts, 4 days after infestation, read-out: effect in at least one of the two categories (mortality or growth inhibition)
Method: Example B2: Activity on Diabrotica balteata (Corn Root Worm)
Maize sprouts placed onto an agar layer in 24-well microtiter plates were treated with aqueous test solutions prepared from 10′000 ppm DMSO stock solutions by spraying. After drying, the plates were infested with L2 larvae (6 to 10 per well). The samples were assessed for mortality and growth inhibition in comparison to untreated samples 4 days after infestation.

[3] = test system: Euschistus heros (Neotropical Brown Stink Bug); assay: Example B3: Activity on Euschistus heros, soybean leaf spray; conditions: 120 h, application rate of 200 ppm, N2 nymphs on soybean leaves, 5 days after infestation, read-out: effect in at least one of the two categories (mortality or growth inhibition)
Method: Example B3: Activity on Euschistus heros (Neotropical Brown Stink Bug)
Soybean leaves on agar in 24-well microtiter plates were sprayed with aqueous test solutions prepared from 10′000 ppm DMSO stock solutions. After drying the leaves were infested with N2 nymphs. The samples were assessed for mortality and growth inhibition in comparison to untreated samples 5 days after infestation.

[4] = test system: Myzus persicae (Green Peach Aphid); assay: Example B4: Activity on Myzus persicae, sunflower leaf disc spray; conditions: foliar, 144 h, application rate of 200 ppm, mixed-age aphids on sprayed sunflower leaf discs, 6 days after infestation
Method: Example B4: Activity on Myzus persicae (Green Peach Aphid)
Sunflower leaf discs were placed onto agar in a 24-well microtiter plate and sprayed with aqueous test solutions prepared from 10′000 ppm DMSO stock solutions. After drying, the leaf discs were infested with an aphid population of mixed ages. The samples were assessed for mortality 6 days after infestation.

[5] = test system: Myzus persicae (Green Peach Aphid); assay: Example B5: Activity on Myzus persicae, pea seedling roots in test solution; conditions: 144 h, test rate of 24 ppm, roots of infested pea seedlings placed into test solution, 6 days
Method: Example B5: Activity on Myzus persicae (Green Peach Aphid)
Roots of pea seedlings infested with an aphid population of mixed ages were placed directly into aqueous test solutions prepared from 10′000 DMSO stock solutions. The samples were assessed for mortality 6 days after placing seedlings into test solutions.

[6] = test system: Plutella xylostella (Diamond Back Moth); assay: Example B6: Activity on Plutella xylostella, artificial diet, L2 larvae; conditions: 120 h, application rate of 200 ppm, 5 days after infestation, read-out: effect in at least one of the two categories (mortality or growth inhibition)
Method: Example B6: Activity on Plutella xylostella (Diamond Back Moth)
24-well microtiter plates with artificial diet were treated with aqueous test solutions prepared from 10′000 ppm DMSO stock solutions by pipetting. After drying, the plates were infested with L2 larvae (10 to 15 per well). The samples were assessed for mortality and growth inhibition in comparison to untreated samples 5 days after infestation.

[7] = test system: Spodoptera littoralis (Egyptian Cotton Leaf Worm); assay: Example B7: Activity on Spodoptera littoralis, cotton leaf disc spray; conditions: foliar, 72 h, application rate of 200 ppm, L1 larvae on cotton leaf discs, 3 days after infestation, read-out: control (mortality, anti-feeding effect or growth inhibition)
Method: Example B7: Activity on Spodoptera littoralis (Egyptian Cotton Leaf Worm)
Cotton leaf discs were placed onto agar in 24-well microtiter plates and sprayed with aqueous test solutions prepared from 10′000 ppm DMSO stock solutions. After drying the leaf discs were infested with five L1 larvae. The samples were assessed for mortality, anti-feeding effect, and growth inhibition in comparison to untreated samples 3 days after infestation. Control of Spodoptera littoralis by a test sample is given when at least one of the categories mortality, anti-feedant effect, and growth inhibition is higher than the untreated sample.

CCS(=N)(=O)c1cc(C2CC2)cnc1-c1nc2cc(SC(F)(F)F)ncc2n1C (stereo not shown) [Example P4, [5-cyclopropyl-2-[3-methyl-6-(trifluoromethylsulfanyl)imidazo[4,5-c]pyridin-2-yl]-3-pyridyl]-ethyl-imino-oxo-λ^6-sulfane]
≥ 80%: mortality at 200 ppm [1] | percent effect (mortality or growth inhibition) at 200 ppm [2] | percent effect (mortality or growth inhibition) at 200 ppm [3] | mortality at 200 ppm [4] | mortality at 24 ppm [5] | percent effect (mortality or growth inhibition) at 200 ppm [6] | percent control (mortality, anti-feedant effect or growth inhibition) at 200 ppm [7]

CCS(=N)(=O)c1cc(C2CC2)cnc1-c1nc2cc(C(F)(F)F)ncc2n1C (stereo not shown) [Example P5, [5-cyclopropyl-2-[3-methyl-6-(trifluoromethyl)imidazo[4,5-c]pyridin-2-yl]-3-pyridyl]-ethyl-imino-oxo-λ^6-sulfane]
≥ 80%: percent effect (mortality or growth inhibition) at 200 ppm [2] | mortality at 200 ppm [4] | mortality at 24 ppm [5] | percent effect (mortality or growth inhibition) at 200 ppm [6] | percent control (mortality, anti-feedant effect or growth inhibition) at 200 ppm [7]

CCS(=N)(=O)c1cc(C2(C#N)CC2)cnc1-c1nc2cc(C(F)(F)F)cnc2n1C (stereo not shown) [Example P6, 1-[5-(ethylsulfonimidoyl)-6-[3-methyl-6-(trifluoromethyl)imidazo[4,5-b]pyridin-2-yl]-3-pyridyl]cyclopropanecarbonitrile]
≥ 80%: mortality at 200 ppm [1] | mortality at 200 ppm [4] | mortality at 24 ppm [5] | percent effect (mortality or growth inhibition) at 200 ppm [6]

CCS(=N)(=O)c1cc(C2CC2)cnc1-n1cc2cnc(C(F)(F)F)cc2n1 (stereo not shown) [Example P7, [5-cyclopropyl-2-[6-(trifluoromethyl)pyrazolo[4,3-c]pyridin-2-yl]-3-pyridyl]-ethyl-imino-oxo-λ^6-sulfane]
≥ 80%: percent effect (mortality or growth inhibition) at 200 ppm [2] | mortality at 200 ppm [4] | mortality at 24 ppm [5] | percent effect (mortality or growth inhibition) at 200 ppm [6] | percent control (mortality, anti-feedant effect or growth inhibition) at 200 ppm [7]

CCS(=N)(=O)c1cc(C2(C#N)CC2)cnc1-c1nc2cc(C(F)(F)F)n(OC)c(=O)c2n1C (stereo not shown) [Example P8, 1-[5-(ethylsulfonimidoyl)-6-[5-methoxy-3-methyl-4-oxo-6-(trifluoromethyl)imidazo[4,5-c]pyridin-2-yl]-3-pyridyl]cyclopropanecarbonitrile]
≥ 80%: mortality at 200 ppm [1] | percent effect (mortality or growth inhibition) at 200 ppm [2] | percent effect (mortality or growth inhibition) at 200 ppm [3] | mortality at 200 ppm [4] | mortality at 24 ppm [5] | percent effect (mortality or growth inhibition) at 200 ppm [6] | percent control (mortality, anti-feedant effect or growth inhibition) at 200 ppm [7]

CCS(=N)(=O)c1cc(C2(C#N)CC2)ccc1-c1nc2cc(SC(F)(F)F)ncc2n1C (stereo not shown) [Example P9, 1-[3-(ethylsulfonimidoyl)-4-[3-methyl-6-(trifluoromethylsulfanyl)imidazo[4,5-c]pyridin-2-yl]phenyl]cyclopropanecarbonitrile]
≥ 80%: percent effect (mortality or growth inhibition) at 200 ppm [3] | mortality at 200 ppm [4] | mortality at 24 ppm [5]

CCS(=N)(=O)c1cc(C2(C#N)CC2)cnc1-c1nc2cc(C(F)(F)F)nnc2n1C (stereo not shown) [Example P10, 1-[5-(ethylsulfonimidoyl)-6-[7-methyl-3-(trifluoromethyl)imidazo[4,5-c]pyridazin-6-yl]-3-pyridyl]cyclopropanecarbonitrile]
≥ 80%: mortality at 200 ppm [1] | percent effect (mortality or growth inhibition) at 200 ppm [2] | percent effect (mortality or growth inhibition) at 200 ppm [3] | mortality at 200 ppm [4] | mortality at 24 ppm [5]

CCS(=N)(=O)c1cc(C2CC2)cnc1-c1nc2cc(C(F)(F)F)nnc2n1C (stereo not shown) [Example P11, [5-cyclopropyl-2-[7-methyl-3-(trifluoromethyl)imidazo[4,5-c]pyridazin-6-yl]-3-pyridyl]-ethyl-imino-oxo-λ^6-sulfane]
≥ 80%: percent effect (mortality or growth inhibition) at 200 ppm [2] | mortality at 200 ppm [4] | mortality at 24 ppm [5] | percent effect (mortality or growth inhibition) at 200 ppm [6] | percent control (mortality, anti-feedant effect or growth inhibition) at 200 ppm [7]

CCS(=N)(=O)c1cc(C2CC2)cnc1-c1nc2cc(C(F)(F)F)cnc2n1C (stereo not shown) [Example P12, [5-cyclopropyl-2-[3-methyl-6-(trifluoromethyl)imidazo[4,5-b]pyridin-2-yl]-3-pyridyl]-ethyl-imino-oxo-λ^6-sulfane]
≥ 80%: percent effect (mortality or growth inhibition) at 200 ppm [2] | mortality at 200 ppm [4] | mortality at 24 ppm [5] | percent effect (mortality or growth inhibition) at 200 ppm [6] | percent control (mortality, anti-feedant effect or growth inhibition) at 200 ppm [7]

CCS(=N)(=O)c1cc(C2(C#N)CC2)ccc1-c1nc2cc(C(F)(F)F)ncc2n1C (stereo not shown) [Example P13, 1-[3-(ethylsulfonimidoyl)-4-[3-methyl-6-(trifluoromethyl)imidazo[4,5-c]pyridin-2-yl]phenyl]cyclopropanecarbonitrile]
≥ 80%: mortality at 200 ppm [1] | percent effect (mortality or growth inhibition) at 200 ppm [2] | percent effect (mortality or growth inhibition) at 200 ppm [3] | mortality at 200 ppm [4] | mortality at 24 ppm [5]

CCn1c(C(F)(F)F)cc2nc(-c3ncc(C4(C#N)CC4)cc3S(=N)(=O)CC)n(C)c2c1=O (stereo not shown) [Example P14, 1-[6-[5-ethyl-3-methyl-4-oxo-6-(trifluoromethyl)imidazo[4,5-c]pyridin-2-yl]-5-(ethylsulfonimidoyl)-3-pyridyl] cyclopropanecarbonitrile]
≥ 80%: mortality at 200 ppm [1] | percent effect (mortality or growth inhibition) at 200 ppm [2] | percent effect (mortality or growth inhibition) at 200 ppm [3] | mortality at 200 ppm [4] | mortality at 24 ppm [5] | percent effect (mortality or growth inhibition) at 200 ppm [6] | percent control (mortality, anti-feedant effect or growth inhibition) at 200 ppm [7]

CCS(=N)(=O)c1cc(C2(C#N)CC2)ccc1-c1nc2cc(C(F)(F)F)cnc2n1C (stereo not shown) [Example P15, 1-[3-(ethylsulfonimidoyl)-4-[3-methyl-6-(trifluoromethyl)imidazo[4,5-b]pyridin-2-yl]phenyl]cyclopropanecarbonitrile]
≥ 80%: mortality at 200 ppm [1] | percent effect (mortality or growth inhibition) at 200 ppm [3] | mortality at 200 ppm [4] | mortality at 24 ppm [5] | percent effect (mortality or growth inhibition) at 200 ppm [6] | percent control (mortality, anti-feedant effect or growth inhibition) at 200 ppm [7]
